Target: T1, Autotaxin enzyme (ATX) (Homo sapiens, UniProt Q13822)
T1 construct: purchased Echelon Biosciences, Inc. E-4000
Assay: In vitro ATX assay (enzymatic ATX inhibition, LPC 14:0 substrate, choline oxidase/HRP absorbance readout)
Assay type: biochemical
Details: 0.3 mM LPC 14:0, 37° C., 4 hours, absorbance 555 nm
In short: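 Human ATX (10 ng/mL as added) in pH 9.0 Tris buffer with NaCl, MgCl2, CoCl2 and Triton X-100 was preincubated with compound for 15 min at 37 °C. LPC 14:0 (0.3 mM final) was then hydrolysed for 4 h at 37 °C. Released choline was detected by choline oxidase/HRP with 4-AAP/TOOS, read after 15 min RT as absorbance at 555 nm, giving banded IC50 values.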

`O=C(c1cnc(NCc2cc(OC(F)(F)F)cc(C3CC3)c2)nc1)N1CC2(CCS2(=O)=O)C1` [Example 102, (2-((3-cyclopropyl-5-(trifluoromethoxy)benzyl)ami-no)pyrimidin-5-yl)(1,1-dioxido-1-thia-6-azaspiro[3.3]heptan-6-y)methanone] and `O=C(c1cnc(NCc2cc(OC(F)(F)F)cc(C3CC3)c2)nc1)N1CC2(C1)CS(=O)(=O)C2` [Example 106, (2-((3-cyclopropyl-5-(trifluoromethoxy)benzyl)ami-no)pyrimidin-5-yl)(2,2-dioxido-2-thia-6-azaspiro[3.3]heptan-6-yl)methanone] fall in the same range of IC50: 100 to 1000 nM for the first, 100 to 1000 nM for the second.

`COC[C@H]1CCN1C(=O)c1cnc(NCc2cc(OC(F)(F)F)cc(C3CC3)c2)nc1` [Example 103, (R)-(2-((3-cyclopropyl-5-(trifluoromethoxy)benzyl)ami-no)pyrimidin-5-yl)(2-(methoxymethyl)azetidin-1-yl)methanone] and `COC[C@@H]1CCN1C(=O)c1cnc(NCc2cc(OC(F)(F)F)cc(C3CC3)c2)nc1` [Example 104, (S)-(2-((3-cyclopropyl-5-(trifluoromethoxy)benzyl)ami-no)pyrimidin-5-yl)(2-(methoxymethyl)azetidin-1-yl)methanone] cannot be ordered by IC50: < 100 nM for the first, < 100 nM for the second.

Compared with `O=C(c1cnc(NCc2cc(OC(F)(F)F)cc(C3CC3)c2)nc1)N1CC2(CCO2)C1` [Example 105, (2-((3-cyclopropyl-5-(trifluoromethoxy)benzyl)ami-no)pyrimidin-5-yl)(1-oxa-6-azaspiro[3.3]heptan-6-yl)methanone], `O=C(c1cnc(NCc2cc(OC(F)(F)F)cc(C3CC3)c2)nc1)N1CCC12CNC2` [Example 141, (2-((3-Cyclopropyl-5-(trifluoromethoxy)benzyl)amino)pyrimidin-5-yl)(1,6-diazaspiro[3.3]heptan-1-yl)methanone] is lower in IC50: 100 to 1000 nM for the first, < 100 nM for the second. The second is the more potent here.

`O=C(c1cnc(NCc2cc(OC(F)(F)F)cc(C3CC3)c2)nc1)N1CCC12CS(=O)(=O)C2` [Example 107, (2-((3-cyclopropyl-5-(trifluoromethoxy)benzyl)ami-no)pyrimidin-5-yl)(6,6-dioxido-6-thia-1-azaspiro[3.3]heptan-1-yl)-methanone] and `O=C(c1cnc(NCc2cc(OC(F)(F)F)cc(C3CC3)c2)nc1)N1CCC12CCCOC2` (stereo not drawn) [Example 108, (2-((3-cyclopropyl-5-(trifluoromethoxy)benzyl)ami-no)pyrimidin-5-yl)(6-oxa-1-azaspiro[3.5]nonan-1-yl)-methanone] cannot be ordered by IC50: < 100 nM for the first, < 100 nM for the second.

First: COC1CN(C(=O)c2cnc(NCc3cc(OC(F)(F)F)cc(C4CC4)c3)nc2)C1 [Example 109, (2-((3-cyclopropyl-5-(trifluoromethoxy)benzyl)ami-no)pyrimidin-5-yl)(3-methoxyazetidin-1-yl)-methanone]
Second: CN(C)C1CN(C(=O)c2cnc(NCc3cc(OC(F)(F)F)cc(C4CC4)c3)nc2)C1 [Example 110, (2-((3-cyclopropyl-5-(trifluoromethoxy)benzyl)ami-no)pyrimidin-5-yl)(3-(dimethylamino)azetidin-1-yl)methanone]
The IC50 of the first is lower: < 100 nM for the first, 100 to 1000 nM for the second. The first is the more potent here.

`O=C(c1cnc(NCc2cc(OC(F)(F)F)cc(C3CC3)c2)nc1)N1CCC2COCC21` (stereo not drawn) [Example 111, (2-((3-cyclopropyl-5-(trifluoromethoxy)benzyl)ami-no)pyrimidin-5-yl)(hexahydro-1H-furo[3,4-b]pyrrol-1-yl)methanone] and `CC(C)(O)C1CCN1C(=O)c1cnc(NCc2cc(OC(F)(F)F)cc(C3CC3)c2)nc1` (stereo not drawn) [Example 115, (2-((3-cyclopropyl-5-(trifluoromethoxy)benzyl)ami-no)pyrimidin-5-yl)(2-(2-hydroxypropan-2-yl)azetidin-1-yl)methanone] cannot be ordered by IC50: < 100 nM for the first, < 100 nM for the second.

`CN1CCC2(CC1)CCN2C(=O)c1cnc(NCc2cc(OC(F)(F)F)cc(C3CC3)c2)nc1` [Example 112, (2-((3-cyclopropyl-5-(trifluoromethoxy)benzyl)ami-no)pyrimidin-5-yl)(7-methyl-1,7-diazaspiro[3.5]nonan-1-yl)methanone] and `CCc1cc(CNc2ncc(C(=O)N3CCC34COC4)cn2)cc(OC(F)(F)F)c1` [Example 123, (2-((3-Ethyl-5-(trifluoromethoxy)benzyl)amino)pyrimidin-5-yl)(6-oxa-1-azaspiro[3.3]heptan-1-yl)methanone] cannot be ordered by IC50: < 100 nM for the first, < 100 nM for the second.

Compared with `O=C(c1cnc(NCc2cc(OC(F)(F)F)cc(C3CC3)c2)nc1)N1CCC1C(F)F` (stereo not drawn) [Example 113, (2-((3-cyclopropyl-5-(trifluoromethoxy)benzyl)ami-no)pyrimidin-5-yl)(2-(difluoromethyl)azetidin-1-yl)methanone], `O=C(c1cnc(NCc2cc(OC(F)(F)F)cc(C3CC3)c2)nc1)N1CCC1C(F)(F)F` (stereo not drawn) [Example 114, (2-((3-cyclopropyl-5-(trifluoromethoxy)benzyl)ami-no)pyrimidin-5-yl)(2-(trifluoromethyl)azetidin-1-yl)methanone] is higher in IC50: < 100 nM for the first, 100 to 1000 nM for the second. The first is the more potent here.

Compared with `Cc1ccc2c(c1)CC(Nc1ncc(C(=O)N3CCC34COC4)cn1)C2` (stereo not drawn) [Example 124, (2-((5-Methyl-2,3-dihydro-1H-inden-2-yl)amino)pyrimidin-5-yl)(6-oxa-1-azaspiro[3.3]heptan-1-yl)methanone], `O=C(c1cnc(N[C@@H]2Cc3ccc(Cl)cc3C2)nc1)N1CCC12COC2` [Example 129, (R)-(2-((5-Chloro-2,3-dihydro-1H-inden-2-yl)amino)pyrimidin-5-yl)(6-oxa-1-azaspiro[3.3]heptan-1-yl)methanone] is lower in IC50: 100 to 1000 nM for the first, < 100 nM for the second.

First: O=C(c1cnc(NC2Cc3ccc(C4CC4)cc3C2)nc1)N1CCC12COC2 (stereo not drawn) [Example 125, (2-((5-Cyclopropyl-2,3-dihydro-1H-inden-2-yl)amino)pyrimidin-5-yl)(6-oxa-1-azaspiro[3.3]heptan-1-yl)methanone]
Second: O=C(c1cnc(N[C@H]2Cc3ccc(Cl)cc3C2)nc1)N1CCC12COC2 [Example 130, (S)-(2-((5-Chloro-2,3-dihydro-1H-inden-2-yl)amino)pyrimidin-5-yl)(6-oxa-1-azaspiro[3.3]heptan-1-yl)methanone]
The IC50 of the first is lower: < 100 nM for the first, 100 to 1000 nM for the second. The first is the more potent here.

`CCc1ccc2c(c1)CC(Nc1ncc(C(=O)N3CCC34COC4)cn1)C2` (stereo not drawn) [Example 126, (2-((5-Ethyl-2,3-dihydro-1H-inden-2-yl)amino)pyrimidin-5-yl) (6-oxa-1-azaspiro[3.3]heptan-1-yl)methanone] and `CS(=O)(=O)c1ccc2c(c1)CC(Nc1ncc(C(=O)N3CCC34COC4)cn1)C2` (stereo not drawn) [Example 138, (2-((5-(Methylsulfonyl)-2,3-dihydro-1H-inden-2-yl)amino)pyrimidin-5-yl)(6-oxa-1-azaspiro[3.3]heptan-1-yl)methanone] cannot be ordered by IC50: 100 to 1000 nM for the first, ≥ 1000 nM for the second.

`O=C(c1cnc(NC2Cc3cc(Br)c(Br)cc3C2)nc1)N1CCC12COC2` [Example 127, (2-((5,6-Dibromo-2,3-dihydro-1H-inden-2-yl)amino)pyrimidin-5-yl)(6-oxa-1-azaspiro[3.3]heptan-1-yl)methanone] and `Cc1cc2c(cc1C)CC(Nc1ncc(C(=O)N3CCC34COC4)cn1)C2` [Example 128, (2-((5,6-Dimethyl-2,3-dihydro-1H-inden-2-yl)amino)pyrimidin-5-yl)(6-oxa-1-azaspiro[3.3]heptan-1-yl)methanone] cannot be ordered by IC50: 100 to 1000 nM for the first, ≥ 1000 nM for the second.

`CC(C)(O)C1CCN1C(=O)c1cnc(N[C@@H]2Cc3ccc(Cl)cc3C2)nc1` (stereo partly drawn) [Example 131, (2-(((R)-5-Chloro-2,3-dihydro-1H-inden-2-yl)amino)pyrimidin-5-yl)(2-(2-hydroxypropan-2-yl)azetidin-1-yl)methanone] and `CC(C)(O)[C@@H]1CCN1C(=O)c1cnc(N[C@@H]2Cc3ccc(Cl)cc3C2)nc1` [Example 135] cannot be ordered by IC50: < 100 nM for the first, < 100 nM for the second.

`O=C(c1cnc(N[C@@H]2Cc3ccc(Cl)cc3C2)nc1)N1CCC12CCOC2` (stereo partly drawn) [Example 132, (2-(((R)-5-Chloro-2,3-dihydro-1H-inden-2-yl)amino)pyrimidin-5-yl)(6-oxa-1-azaspiro[3.4]octan-1-yl)methanone] and `CC1(O)CC2(CCN2C(=O)c2cnc(N[C@@H]3Cc4ccc(Cl)cc4C3)nc2)C1` (stereo partly drawn) [Example 134, (R)-(2-((5-Chloro-2,3-dihydro-1H-inden-2-yl)amino)pyrimidin-5-yl)(6-hydroxy-6-methyl-1-azaspiro[3.3]heptan-1-yl)methanone] cannot be ordered by IC50: < 100 nM for the first, < 100 nM for the second.

`CC1CCN1C(=O)c1cnc(N[C@@H]2Cc3ccc(Cl)cc3C2)nc1` (stereo partly drawn) [Example 133, (2-(((R)-5-Chloro-2,3-dihydro-1H-inden-2-yl)amino)pyrimidin-5-yl)(2-methylazetidin-1-yl)methanone] and `CC(C)(O)[C@H]1CCN1C(=O)c1cnc(N[C@@H]2Cc3ccc(Cl)cc3C2)nc1` [Example 136, (2-(((R)-5-Chloro-2,3-dihydro-1H-inden-2-yl)amino)pyrimidin-5-yl) ((R)-2-(2-hydroxypropan-2-yl)azetidin-1-yl)methanone] cannot be ordered by IC50: < 100 nM for the first, < 100 nM for the second.

`CS(=O)(=O)c1cc(CNc2ncc(C(=O)N3CCC34COC4)cn2)cc(OC(F)(F)F)c1` [Example 137, (2-((3-(Methylsulfonyl)-5-(trifluoromethoxy)benzyl)amino)pyrimidin-5-yl)(6-oxa-1-azaspiro[3.3]heptan-1-yl)methanone] and `NC(=O)c1cc(CNc2ncc(C(=O)N3CCC34COC4)cn2)cc(OC(F)(F)F)c1` [Example 140, 3-(((5-(6-Oxa-1-azaspiro[3.3]heptane-1-carbonyl)pyrimidin-2-yl)amino)methyl)-5-(trifluoromethoxy)benzamide] cannot be ordered by IC50: ≥ 1000 nM for the first, ≥ 1000 nM for the second.

`N#Cc1cc(CNc2ncc(C(=O)N3CCC34COC4)cn2)cc(OC(F)(F)F)c1` [Example 139, 3-(((5-(6-Oxa-1-azaspiro[3.3]heptane-1-carbonyl)pyrimidin-2-yl)amino)methyl)-5-(trifluoromethoxy)benzonitrile] showed an IC50 of 100 to 1000 nM.

From US20210363152A1, “AMINOAZINE AMIDES” (Hoffmann-La Roche Inc., priority 2018, published 2021)
